Measurements taken from article PMC5902632 (2018).
Numbered stars: 1 amine (or outer) side, 2 acyl side, 3 side chain; on linkers, the order of the positions; unused ones are H or OH. Bridge positions count the residues as written; N and C are the ends. Square brackets hold non-standard residues; d marks the D form. Peptide text beside a SMILES is read from it. I, II: the chains in the order shown. Actinocin(9to1) = Cc1c2oc3c(C)ccc(C(=O)[*:1])c3nc-2c(C(=O)[*:2])c(N)c1=O; NMeV = CN[C@H](C(=O)O)C(C)C; Sar = CNCC(=O)O

Tests used:
[1] = test system: AcDNA (DNA, duplex) AGATATGCATATCT; assay: NMR (HSQC, NOESY, relaxation dispersion); conditions: 125 mM NaCl; 15 mM sodium phosphate, 0.1 mM EDTA, pH 5.3 or 6.8, 8% D2O; two orientations of the chromophore
[2] = test system: E12DNA-HG (DNA, duplex) ACGCACGT/ACGTGCGT; assay: NMR (2D NOESY and HSQC); conditions: 125 mM NaCl; 15 mM sodium phosphate, 0.1 mM EDTA, pH 5.3
[3] = test system: E12DNA (DNA, duplex) ACACGTACGTGT; assay: NMR (HSQC chemical shift perturbation, relaxation dispersion); conditions: 125 mM NaCl; 15 mM sodium phosphate, 0.1 mM EDTA, pH 5.3 or 6.8, 8% D2O; slow exchange
[4] = test system: E12DNA-WC (DNA, duplex) ACACGTAT/ATACGTGT; assay: NMR (2D HSQC chemical shift perturbation); conditions: 125 mM NaCl; 15 mM sodium phosphate, 0.1 mM EDTA, pH 5.3 or 6.8; room temperature

| binding [3] | binding [4] | SMILES | binding [1] | binding [2] |
| --- | --- | --- | --- | --- |
| – | – | Cc1c2oc3c(C)ccc(C(=O)N[C@@H]4C(=O)N[C@H](C(C)C)C(=O)N5CCC[C@H]5C(=O)N(C)CC(=O)N(C)[C@@H](C(C)C)C(=O)O[C@@H]4C)c3nc-2c(C(=O)N[C@@H]2C(=O)N[C@H](C(C)C)C(=O)N3CCC[C@H]3C(=O)N(C)CC(=O)N(C)[C@@H](C(C)C)C(=O)O[C@@H]2C)c(N)c1=O (I: T[dV]P[Sar][NMeV] / II: T[dV]P[Sar][NMeV]; ester I:1-I:C, II:1-II:C; linker I:N-II:N via Actinocin(9to1)) | yes | – |
| yes | yes | CSC1SC[C@H]2C(=O)N(C)[C@@H](C(C)C)C(=O)OC[C@@H](NC(=O)c3cnc4ccccc4n3)C(=O)N[C@@H](C)C(=O)N(C)[C@@H]1C(=O)N(C)[C@@H](C(C)C)C(=O)OC[C@@H](NC(=O)c1cnc3ccccc3n1)C(=O)N[C@@H](C)C(=O)N2C (stereo partly shown) | – | yes |
